Several values for one entry are separate records, joined by “and”; a condition that tells them apart may be missing. Equal values may be shown once.
Tested on: 786-0 complex spheroid viability
Assay: Anticancer human tumor 786-0 cell line growth inhibition;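 note: spheroids exposed to agents for seven days before readout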
Conditions: for viability, T/C: stronger effect = lower value
Method in brief: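 Drug combinations with the LSD1 inhibitor iadademstat tested on tumor cells co-cultured as spheroids with endothelial cells and mesenchymal stem cells. Concentrations descended in half-log increments from clinical Cmax or 10 microM.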

[1] = curve of first compound, second compound 0.1 µM
[2] = curve of first compound, second compound 0.316 µM
[3] = curve of first compound, second compound 1 µM
[4] = curve of first compound, second compound 3.16 µM
[5] = curve of first compound, second compound 10 µM
[6] = second compound 0.1 µM, first compound 0.00949 µM
[7] = second compound 0.1 µM, first compound 0.03 µM
[8] = second compound 0.1 µM, first compound 0.0949 µM
[9] = second compound 0.1 µM, first compound 0.3 µM
[10] = second compound 0.1 µM, first compound 0.949 µM
[11] = second compound 0.1 µM, first compound 3 µM
[12] = second compound 0.316 µM, first compound 0.00949 µM
[13] = second compound 0.316 µM, first compound 0.03 µM
[14] = second compound 0.316 µM, first compound 0.0949 µM
[15] = second compound 0.316 µM, first compound 0.3 µM
[16] = second compound 0.316 µM, first compound 0.949 µM
[17] = second compound 0.316 µM, first compound 3 µM
[18] = second compound 1 µM, first compound 0.00949 µM
[19] = second compound 1 µM, first compound 0.03 µM
[20] = second compound 1 µM, first compound 0.0949 µM
[21] = second compound 1 µM, first compound 0.3 µM
[22] = second compound 1 µM, first compound 0.949 µM
[23] = second compound 1 µM, first compound 3 µM
[24] = second compound 3.16 µM, first compound 0.00949 µM
[25] = second compound 3.16 µM, first compound 0.03 µM
[26] = second compound 3.16 µM, first compound 0.0949 µM
[27] = second compound 3.16 µM, first compound 0.3 µM
[28] = second compound 3.16 µM, first compound 0.949 µM
[29] = second compound 3.16 µM, first compound 3 µM
[30] = second compound 10 µM, first compound 0.00949 µM
[31] = second compound 10 µM, first compound 0.03 µM
[32] = second compound 10 µM, first compound 0.0949 µM
[33] = second compound 10 µM, first compound 0.3 µM
[34] = second compound 10 µM, first compound 0.949 µM
[35] = second compound 10 µM, first compound 3 µM
[36] = second compound 0.1 µM, first compound 0.0316 µM
[37] = second compound 0.1 µM, first compound 0.1 µM
[38] = second compound 0.1 µM, first compound 0.316 µM
[39] = second compound 0.1 µM, first compound 1 µM
[40] = second compound 0.316 µM, first compound 0.0316 µM
[41] = second compound 0.316 µM, first compound 0.1 µM
[42] = second compound 0.316 µM, first compound 0.316 µM
[43] = second compound 0.316 µM, first compound 1 µM
[44] = second compound 1 µM, first compound 0.0316 µM
[45] = second compound 1 µM, first compound 0.1 µM
[46] = second compound 1 µM, first compound 0.316 µM
[47] = second compound 1 µM, first compound 1 µM
[48] = second compound 3.16 µM, first compound 0.0316 µM
[49] = second compound 3.16 µM, first compound 0.1 µM
[50] = second compound 3.16 µM, first compound 0.316 µM
[51] = second compound 3.16 µM, first compound 1 µM
[52] = second compound 10 µM, first compound 0.0316 µM
[53] = second compound 10 µM, first compound 0.1 µM
[54] = second compound 10 µM, first compound 0.316 µM
[55] = second compound 10 µM, first compound 1 µM

COc1cc(C2c3cc4c(cc3C(OC3OC5COC(C)OC5C(O)C3O)C3COC(=O)C23)OCO4)cc(OC)c1O (configuration not stated) + NC1CC1c1ccc(-c2cccc(O)c2)cc1
IC50 [1]: 0.212 µM
IC50 [2]: 0.247 µM
IC50 [3]: 0.174 µM
IC50 [4]: 0.183 µM
IC50 [5]: 0.162 µM
viability, T/C [6]: 96.6%
viability, T/C [7]: 88.2%
viability, T/C [8]: 63.9%
viability, T/C [9]: 42.5%
viability, T/C [10]: 26.9%
viability, T/C [11]: 12.1%
viability, T/C [12]: 105%
viability, T/C [13]: 95.8%
viability, T/C [14]: 66.2%
viability, T/C [15]: 47.1%
viability, T/C [16]: 25.8%
viability, T/C [17]: 9.93%
viability, T/C [18]: 93.1%
viability, T/C [19]: 89.4%
viability, T/C [20]: 57.9%
viability, T/C [21]: 40.2%
viability, T/C [22]: 22%
viability, T/C [23]: 10.9%
viability, T/C [24]: 90.7%
viability, T/C [25]: 82.9%
viability, T/C [26]: 59.2%
viability, T/C [27]: 43.3%
viability, T/C [28]: 20.8%
viability, T/C [29]: 10.3%
viability, T/C [30]: 80.6%
viability, T/C [31]: 76.6%
viability, T/C [32]: 54.3%
viability, T/C [33]: 42.5%
viability, T/C [34]: 22.6%
viability, T/C [35]: 8.94%

COc1ccc([C@@H](O)c2cc(-c3ncnc4cc(N5CCOCC5)ccc34)c(F)cc2Cl)nn1 + NC1CC1c1ccc(-c2cccc(O)c2)cc1
IC50 [1]: 3.59 µM
IC50 [2]: 4.96 µM
IC50 [3]: 3.76 µM
IC50 [4]: 2.79 µM
IC50 [5]: 2.2 µM
viability, T/C [36]: 98.2%
viability, T/C [37]: 100%
viability, T/C [38]: 96.2%
viability, T/C [39]: 79.2%
viability, T/C (second compound 0.1 µM, first compound 3.16 µM): 52%
viability, T/C (second compound 0.1 µM, first compound 10 µM): 37%
viability, T/C [40]: 108%
viability, T/C [41]: 110%
viability, T/C [42]: 102%
viability, T/C [43]: 86.9%
viability, T/C (second compound 0.316 µM, first compound 3.16 µM): 56.2%
viability, T/C (second compound 0.316 µM, first compound 10 µM): 40%
viability, T/C [44]: 101%
viability, T/C [45]: 92.9%
viability, T/C [46]: 93%
viability, T/C [47]: 80%
viability, T/C (second compound 1 µM, first compound 3.16 µM): 51.7%
viability, T/C (second compound 1 µM, first compound 10 µM): 38%
viability, T/C [48]: 90.1%
viability, T/C [49]: 93.7%
viability, T/C [50]: 88.2%
viability, T/C [51]: 78.1%
viability, T/C (second compound 3.16 µM, first compound 3.16 µM): 46.3%
viability, T/C (second compound 3.16 µM, first compound 10 µM): 38.4%
viability, T/C [52]: 92.3%
viability, T/C [53]: 84.5%
viability, T/C [54]: 81.3%
viability, T/C [55]: 65.7%
viability, T/C (second compound 10 µM, first compound 3.16 µM): 41.8%
viability, T/C (second compound 10 µM, first compound 10 µM): 34.7%

O=C(C=Cc1cccc(S(=O)(=O)Nc2ccccc2)c1)NO + NC1CC1c1ccc(-c2cccc(O)c2)cc1
IC50 [1]: 1.3 µM
IC50 [2]: 1.3 µM
IC50 [3]: 1.25 µM
IC50 [4]: 1.11 µM
IC50 [5]: 0.84 µM
viability, T/C [6]: 111%
viability, T/C [7]: 107%
viability, T/C [8]: 111%
viability, T/C [9]: 97%
viability, T/C [10]: 66.1%
viability, T/C [11]: 8.04%
viability, T/C [12]: 107%
viability, T/C [13]: 107%
viability, T/C [14]: 109%
viability, T/C [15]: 96.1%
viability, T/C [16]: 66.3%
viability, T/C [17]: 7.18%
viability, T/C [18]: 106%
viability, T/C [19]: 110%
viability, T/C [20]: 110%
viability, T/C [21]: 92.5%
viability, T/C [22]: 63.9%
viability, T/C [23]: 7.4%
viability, T/C [24]: 98.5%
viability, T/C [25]: 99.2%
viability, T/C [26]: 110%
viability, T/C [27]: 90.7%
viability, T/C [28]: 57.4%
viability, T/C [29]: 4.98%
viability, T/C [30]: 92.5%
viability, T/C [31]: 96.9%
viability, T/C [32]: 92.2%
viability, T/C [33]: 87.2%
viability, T/C [34]: 45.6%
viability, T/C [35]: 2.44%

COc1ccc([C@@H](O)c2cc(-c3ncnc4cc(N5CCOCC5)ccc34)c(F)cc2Cl)nn1
viability, T/C (compound 0.0316 µM): 105% and 102%
viability, T/C (compound 0.1 µM): 105% and 103%
viability, T/C (compound 0.316 µM): 107% and 99.3%
viability, T/C (compound 1 µM): 94.2% and 89.3%
viability, T/C (compound 3.16 µM): 66.3% and 59.2%
viability, T/C (compound 10 µM): 42.8% and 42.1%
IC50 (curve of compound): 7.01 µM and 5.89 µM

NS(=O)(=O)OCC1CC(n2ccc3c(NC4CCc5ccccc54)ncnc32)CC1O (configuration not stated) + NC1CCC(NC2CC2c2ccccc2)CC1
IC50 [1]: 0.125 µM
IC50 [2]: 0.139 µM
IC50 [3]: 0.153 µM
IC50 [4]: 0.133 µM
IC50 [5]: 0.104 µM
viability, T/C [6]: 111%
viability, T/C [7]: 86.7%
viability, T/C [8]: 65.6%
viability, T/C [9]: 13.4%
viability, T/C [10]: 3.43%
viability, T/C [11]: 5.07%
viability, T/C [12]: 115%
viability, T/C [13]: 87.3%
viability, T/C [14]: 71.4%
viability, T/C [15]: 15.2%
viability, T/C [16]: 3.67%
viability, T/C [17]: 5.22%
viability, T/C [18]: 113%
viability, T/C [19]: 94.6%
viability, T/C [20]: 74.2%
viability, T/C [21]: 17.9%
viability, T/C [22]: 3.16%
viability, T/C [23]: 4.86%
viability, T/C [24]: 101%
viability, T/C [25]: 78.9%
viability, T/C [26]: 67.3%
viability, T/C [27]: 15.5%
viability, T/C [28]: 3.16%
viability, T/C [29]: 3.27%
viability, T/C [30]: 73.6%
viability, T/C [31]: 58.5%
viability, T/C [32]: 54.6%
viability, T/C [33]: 15.5%
viability, T/C [34]: 1.53%
viability, T/C [35]: 1.72%

O=C(C=Cn1cnc(-c2cc(C(F)(F)F)cc(C(F)(F)F)c2)n1)NNc1cnccn1 + NC1CCC(NC2CC2c2ccccc2)CC1
IC50 [1]: 0.0254 µM
IC50 [2]: 0.0202 µM
IC50 [3]: 0.0227 µM
IC50 [4]: 0.0164 µM
IC50 [5]: 0.0119 µM
viability, T/C (second compound 0.1 µM, first compound 0.00316 µM): 94.3%
viability, T/C (second compound 0.1 µM, first compound 0.01 µM): 68.9%
viability, T/C [36]: 44.6%
viability, T/C [37]: 31.8%
viability, T/C [38]: 21%
viability, T/C [39]: 17.9%
viability, T/C (second compound 0.316 µM, first compound 0.00316 µM): 97.4%
viability, T/C (second compound 0.316 µM, first compound 0.01 µM): 61.9%
viability, T/C [40]: 42.1%
viability, T/C [41]: 30.7%
viability, T/C [42]: 21.2%
viability, T/C [43]: 18.6%
viability, T/C (second compound 1 µM, first compound 0.00316 µM): 90.8%
viability, T/C (second compound 1 µM, first compound 0.01 µM): 63.4%
viability, T/C [44]: 42.6%
viability, T/C [45]: 34.4%
viability, T/C [46]: 21.6%
viability, T/C [47]: 15.7%
viability, T/C (second compound 3.16 µM, first compound 0.00316 µM): 81%
viability, T/C (second compound 3.16 µM, first compound 0.01 µM): 51.6%
viability, T/C [48]: 43.6%
viability, T/C [49]: 31.7%
viability, T/C [50]: 20.8%
viability, T/C [51]: 14.9%
viability, T/C (second compound 10 µM, first compound 0.00316 µM): 74%
viability, T/C (second compound 10 µM, first compound 0.01 µM): 48.3%
viability, T/C [52]: 37.5%
viability, T/C [53]: 35.1%
viability, T/C [54]: 19.9%
viability, T/C [55]: 16.9%

— PubChem BioAssay AID1918944 (Molecular Pharmacology Branch, DTP, NCI, 2023)
